# Patent publication US10150758B2, “PRMT5 inhibitors and uses thereof” (Epizyme, Inc., priority 2012, dated 2018)
# Molecular target: PRMT5/MEP50 (Homo sapiens (Human), UniProt O14744)
# Assay: PRMT5 Biochemical Assay (PRMT5/MEP50 enzyme assay on peptide substrate, 3H-SAM Flashplate)
# Settings: PRMT5/MEP50 4 nM, 3H-SAM 75 nM, peptide 40 nM
# Description: S-adenosylmethionine (SAM), S-adenosylhomocysteine (SAH), bicine, KCl, Tween20, dimethylsulfoxide (DMSO), bovine skin gelatin (BSG), and Tris(2-carboxyethyl)phosphine hydrochloride solution (TCEP) were purchased from Sigma-Aldrich at the highest level of purity possible. ^3H-SAM was purchase from American Radiolabeled Chemicals with a specific activity of 80 Ci/mmol. 384-well streptavidin Flashplates were purchased from PerkinElmer.
# Peptide representative of human histone H4 residues 1-15 was synthesized with a C-terminal linker-affinity tag motif and a C-terminal amide cap by 21st Century Biochemicals. The peptide was high high-perfomance liquid chromatography (HPLC) purified to greater than 95% purity and confirmed by liquid chromatography mass spectrometry (LC-MS). The sequence was Ac-[…][K-Biot]-amide (SEQ ID NO.:3).
# Full-length human PRMT5 (NM_006109.3) transcript variant 1 clone was amplified from a fetal brain cDNA library, incorporating flanking 5′ sequence encoding a FLAG tag ([…]) (SEQ ID NO.:4) fused directly to Ala 2 of PRMT5. Full-length human MEP50 (NM_024102) clone was amplified from a human testis cDNA library incorporating a 5′ sequence encoding a 6-histidine tag (MHHHHHH) (SEQ ID NO.:5) fused directly to Arg 2 of MEP50. The amplified genes were sublconed into pENTR/D/TEV (Life Technologies) and subsequently transferred by Gateway™ attL×attR recombination to pDEST8 baculvirus expression vector (Life Technologies).
# Recombinant baculovirus and Baculovirus-Infected Insect Cells (BIIC) were generated according to Bac-to-Bac kit instructions (Life Technologies) and Wasilko, 2006, respectively. Protein over-expression was accomplished by infecting exponentially growing Spodoptera frugiperda (SF9) cell culture at 1.2×10^6 cell/ml with a 5000 fold dilution of BIIC stock. Infections were carried out at 27° C. for 72 hours, harvested by centrifugation, and stored at −80° C. for purification.
# Flag-PRMT5/6His-MeP50 was eluted with 300 mM Imidazole in the same buffer. The purity of recovered protein was 87%. Reference: Wasilko, D. J. and S. E. Lee: “TIPS: titerless infected-cells preservation and scale-up” Bioprocess J., 5 (2006), pp. 29-32.
# General Procedure for PRMT5/MEP50 Enzyme Assays on Peptide Substrates.
# The assays were all performed in a buffer consisting of 20 mM Bicine (pH=7.6), 1 mM TCEP, 0.005% BSG, and 0.002% Tween20, prepared on the day of use. Compounds in 100% DMSO (1 ul) were spotted into a polypropylene 384-well V-bottom plates (Greiner) using a Platemate Plus outfitted with a 384-channel head (Thermo Scientific). DMSO (1 ul) was added to Columns 11, 12, 23, 24, rows A-H for the maximum signal control and 1 ul of SAH, a known product and inhibitor of PRMT5/MEP50, was added to columns 11, 12, 23, 24, rows I-P for the minimum signal control. A cocktail (40 ul) containing the PRMT5/MEP50 enzyme and the peptide was added by Multidrop Combi (Thermo-Fisher). The compounds were allowed to incubate with PRMT5/MEP50 for 30 min at 25 degrees Celsius, then a cocktail (10 ul) containing ^3H-SAM was added to initiate the reaction (final volume=51 ul). The final concentrations of the components were as follows: PRMT5/MEP50 was 4 nM, ^3H-SAM was 75 nM, peptide was 40 nM, SAH in the minimum signal control wells was 100 uM, and the DMSO concentration was 1%. The assays were stopped by the addition of non-radioactive SAM (10 ul) to a final concentration of 600 uM, which dilutes the ^3H-SAM to a level where its incorporation into the peptide substrate is no longer detectable. 50 ul of the reaction in the 384-well polypropylene plate was then transferred to a 384-well Flashplate and the biotinylated peptides were allowed to bind to the streptavidin surface for at least 1 hour before being washed three times with 0.1% Tween20 in a Biotek ELx405 plate washer. […]
# PRMT5/MEP50, sequence (O14744 other isoform, or with tags, fused parts or gaps): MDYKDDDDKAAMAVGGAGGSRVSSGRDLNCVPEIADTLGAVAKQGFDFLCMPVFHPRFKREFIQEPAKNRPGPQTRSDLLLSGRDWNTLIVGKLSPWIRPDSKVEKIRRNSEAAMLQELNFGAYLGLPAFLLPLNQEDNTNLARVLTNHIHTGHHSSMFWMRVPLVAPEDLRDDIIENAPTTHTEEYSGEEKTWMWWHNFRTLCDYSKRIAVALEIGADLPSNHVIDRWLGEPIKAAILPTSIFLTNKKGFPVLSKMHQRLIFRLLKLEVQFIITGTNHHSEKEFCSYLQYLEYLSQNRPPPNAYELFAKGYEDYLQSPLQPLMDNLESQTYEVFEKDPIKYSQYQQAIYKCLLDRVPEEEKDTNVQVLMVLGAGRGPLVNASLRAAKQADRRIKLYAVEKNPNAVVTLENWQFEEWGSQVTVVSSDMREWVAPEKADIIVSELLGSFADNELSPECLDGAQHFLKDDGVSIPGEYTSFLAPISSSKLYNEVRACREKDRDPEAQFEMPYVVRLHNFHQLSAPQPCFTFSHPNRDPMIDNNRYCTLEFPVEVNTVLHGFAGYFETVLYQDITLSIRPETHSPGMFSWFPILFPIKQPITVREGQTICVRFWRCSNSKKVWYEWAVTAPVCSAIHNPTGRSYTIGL
# PRMT5/MEP50, sequence (Q9BQA1 other isoform, or with tags, fused parts or gaps partner): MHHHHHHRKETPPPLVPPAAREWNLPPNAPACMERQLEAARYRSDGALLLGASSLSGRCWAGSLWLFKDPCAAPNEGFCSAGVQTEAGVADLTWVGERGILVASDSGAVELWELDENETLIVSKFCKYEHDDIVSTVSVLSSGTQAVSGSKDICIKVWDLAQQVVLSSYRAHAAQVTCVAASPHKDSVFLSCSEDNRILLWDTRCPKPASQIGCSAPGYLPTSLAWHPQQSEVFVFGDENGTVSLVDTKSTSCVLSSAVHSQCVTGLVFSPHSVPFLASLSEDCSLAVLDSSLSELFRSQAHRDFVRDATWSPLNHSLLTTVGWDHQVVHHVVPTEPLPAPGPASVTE
row,IC50 [µM],SMILES
1,10 to 50,O=c1cccc(CC(O)CN2CCc3ccccc3C2)[nH]1 (stereo not shown) [Compound 2]
2,10 to 50,"Cc1cccc(N2CCN(CC(O)CN3CCc4ccccc4C3)C(=O)C2)c1 (stereo not shown) [Compound 3, 1-(3-(3,4-dihydroisoquinolin-2(1H)-yl)-2-hydroxypropyl)-4-(m-tolyl)piperazin-2-one]"
3,< 0.1,"O=C1CN(c2cccc(Cl)c2)CCN1CC(O)CN1CCc2ccccc2C1 (stereo not shown) [Compound 5, 4-(3-chlorophenyl)-1-(3-(3,4-dihydroisoquinolin-2(1H)-yl)-2-hydroxypropyl)piperazin-2-one]"
4,1 to 10,O=C1CC(c2ccccc2)CCN1C[C@H](O)CN1CCc2ccccc2C1 (stereo partly shown) [Compound 16]
5,1 to 10,O=C1CC(c2ccccc2)CCN1C[C@@H](O)CN1CCc2ccccc2C1 (stereo partly shown) [Compound 17]
6,1 to 10,O=c1cc(Nc2ccccc2)ccn1C[C@H](O)CN1CCc2ccccc2C1 [Compound 18]
7,0.101 to 1,O=C1CN(c2ccc(CO)cc2)CCN1CC(O)CN1CCc2ccccc2C1 (stereo not shown) [Compound 20]
8,1 to 10,CC(=O)N1CCN(CC(O)CN2CCc3ccccc3C2)C(=O)C1 (stereo not shown) [Compound 21]
9,1 to 10,CS(=O)(=O)N1CCN(CC(O)CN2CCc3ccccc3C2)C(=O)C1 (stereo not shown) [Compound 22]
10,1 to 10,O=C1CN(C2CCOCC2)CCN1CC(O)CN1CCc2ccccc2C1 (stereo not shown) [Compound 23]
11,1 to 10,O=C1CN(Cc2ccccc2)CCN1CC(O)CN1CCc2ccccc2C1 (stereo not shown) [Compound 24]
12,1 to 10,O=C1CN(Cc2ccccn2)CCN1CC(O)CN1CCc2ccccc2C1 (stereo not shown) [Compound 25]
13,1 to 10,O=C1CN(Cc2cccnc2)CCN1CC(O)CN1CCc2ccccc2C1 (stereo not shown) [Compound 26]
14,> 50,CN1CCN(CC(O)CN2CCc3ccccc3C2)C(=O)C1 (stereo not shown) [Compound 27]
15,1 to 10,O=C1COCCN1CC(O)CN1CCc2ccccc2C1 (stereo not shown) [Compound 28]
16,1 to 10,CN(C)c1ccc(N2CCN(C[C@H](O)CN3CCc4ccccc4C3)C(=O)C2)cc1 [Compound 30]
17,> 10,O=C(NC1CCOCC1)C1CC(=O)N(CC(O)CN2CCc3ccccc3C2)C1 (stereo not shown) [Compound 32]

# Test system: symmetric di-methyl arginine in Z-138 cells
# Assay: Z-138 Methylation Assay (In Cell Western for symmetric di-methyl arginine and DNA content)
# Type: cell-based
# Settings: Homo sapiens, 96 hours incubation, read-out: ICW EC50
# Description: [formula] [formula] Where top and bottom are the normally allowed to float, but may be fixed at 100 or 0 respectively in a 3-parameter fit. The Hill Coefficient normally allowed to float but may also be fixed at 1 in a 3-parameter fit. Y is the % inhibition and X is the compound concentration. Z-138 Methylation Assay
# Z-138 suspension cells were purchased from ATCC (American Type Culture Collection, Manassas, Va.). RPMI/Glutamax medium, penicillin-streptomycin, heat inactivated fetal bovine serum, and D-PBS were purchased from Life Technologies, Grand Island, N.Y., USA. Odyssey blocking buffer, 800CW goat anti-rabbit IgG (H+L) antibody, and Licor Odyssey infrared scanner were purchased from Licor Biosciences, Lincoln, Nebr., USA. Symmetric di-methyl arginine antibody was purchased from EMD Millipore, Billerica, Mass., USA. 16% Paraformaldehyde was purchased from Electron Microscopy Sciences, Hatfield, Pa., USA.
# Z-138 suspension cells were maintained in growth medium (RPMI 1640 supplemented with 10% v/v heat inactivated fetal bovine serum and 100 units/mL penicillin-streptomycin) and cultured at 37° C. under 5% CO2.
# Cell Treatment, in Cell Western (ICW) for Detection of Symmetric Di-Methyl Arginine and DNA Content.
# Z-138 cells were seeded in assay medium at a concentration of 50,000 cells per mL to a 384-well cell culture plate with 50 μL per well. Compound (100 nL) from 384 well source plates was added directly to 384 well cell plate. Plates were incubated at 37° C., 5% CO2 for 96 hours. After four days of incubation, 40 μL of cells from incubated plates were added to poly-D-lysine coated 384 well culture plates (BD Biosciences 356697). Plates were incubated at room temperature for 30 minutes then incubated at 37° C., 5% CO2 for 5 hours. After the incubation, 40 μL per well of 8% paraformaldehyde in PBS (16% paraformaldahyde was diluted to 8% in PBS) was added to each plate and incubated for 30 minutes. Plates were transferred to a Biotek 405 plate washer and washed 5 times with 100 μL per well of wash buffer (1×PBS with 0.1% Triton X-100 (v/v)). Next 30 μL per well of Odyssey blocking buffer were added to each plate and incubated 1 hour at room temperature. Blocking buffer was removed and 20 μL per well of primary antibody was added (symmetric di-methyl arginine diluted 1:100 in Odyssey buffer with 0.1% Tween 20 (v/v)) and plates were incubated overnight (16 hours) at 4° C. Plates were washed 5 times with 100 μL per well of wash buffer. Next 20 μL per well of secondary antibody was added (1:200 800CW goat anti-rabbit IgG (H+L) antibody, 1:1000 DRAQ5 (Biostatus limited) in Odyssey buffer with 0.1% Tween 20 (v/v)) and incubated for 1 hour at room temperature. The plates were washed 5 times with 100 μL per well wash buffer then 1 time with 100 μL per well of water. Plates were allowed to dry at room temperature then imaged on the Licor Odyssey machine which measures integrated intensity at 700 nm and 800 nm wavelengths. Both 700 and 800 channels were scanned.
# First, the ratio for each well was determined by:
# Each plate included fourteen control wells of DMSO only treatment (minimum inhibition) as well as fourteen control wells for maximum inhibition treated with 3 μM of a reference compound (Background wells). The average of the ratio values for each control type was calculated and used to determine the percent inhibition for each test well in the plate. Reference compound was serially diluted three-fold in DMSO for a total of nine test concentrations, beginning at 3 μM. Percent inhibition was determined and IC50 curves were generated using triplicate wells per concentration of compound.
row,EC50 [µM],SMILES
1,1 to 10,"O=C1CN(c2cccc(Cl)c2)CCN1CC(O)CN1CCc2ccccc2C1 (stereo not shown) [Compound 5, 4-(3-chlorophenyl)-1-(3-(3,4-dihydroisoquinolin-2(1H)-yl)-2-hydroxypropyl)piperazin-2-one]"
2,> 50,Cc1ccccc1N1CCN(CC(O)CN2CCc3ccccc3C2)C(=O)C1 (stereo not shown) [Compound 10]
3,> 50,"O=C1CN(c2ccccc2F)CCN1CC(O)CN1CCc2ccccc2C1 (stereo not shown) [Compound 11, 1-(3-(3,4-dihydroisoquinolin-2(1H)-yl)-2-hydroxypropyl)-4-(2-fluorophenyl)piperazin-2-one]"
4,> 50,O=c1cc(-c2ccccc2)ccn1C[C@H](O)CN1CCc2ccccc2C1 [Compound 13]
5,> 50,O=c1cc(-c2ccccc2)ccn1C[C@@H](O)CN1CCc2ccccc2C1 [Compound 14]
6,1 to 10,O=C1CN(c2ccc(CO)cc2)CCN1CC(O)CN1CCc2ccccc2C1 (stereo not shown) [Compound 20]
7,1 to 10,O=C(NC1CCOCC1)c1ccn(CC(O)CN2CCc3ccccc3C2)c(=O)c1 (stereo not shown) [Compound 33]

# Test system: Z-138 cells
# Assay: Z-138 Proliferation Assay (Cell Titer Glo)
# Type: cell-based
# Settings: Homo sapiens, 120 h, 5 days, top concentration 20 μM
# Description: [formula] Z-138 Proliferation Assay
# Z-138 suspension cells were purchased from ATCC (American Type Culture Collection, Manassas, Va.). RPMI/Glutamax medium, penicillin-streptomycin, heat inactivated fetal bovine serum were purchased from Life Technologies, Grand Island, N.Y., USA. V-bottom polypropylene 384-well plates were purchased from Greiner Bio-One, Monroe, N.C., USA. Cell culture 384-well white opaque plates were purchased from Perkin Elmer, Waltham, Mass., USA. Cell-Titer Glo® was purchased from Promega Corporation, Madison, Wis., USA. SpectraMax M5 plate reader was purchased from Molecular Devices LLC, Sunnyvale, Calif., USA.
# Z-138 suspension cells were maintained in growth medium (RPMI 1640 supplemented with 10% v/v heat inactivated fetal bovine serum and cultured at 37° C. under 5% CO2. Under assay conditions, cells were incubated in assay medium (RPMI 1640 supplemented with 10% v/v heat inactivated fetal bovine serum and 100 units/mL penicillin-streptomycin) at 37° C. under 5% CO2.
# For the assessment of the effect of compounds on the proliferation of the Z-138 cell line, exponentially growing cells were plated in 384-well white opaque plates at a density of 10,000 cells/ml in a final volume of 50 μl of assay medium. A compound source plate was prepared by performing triplicate nine-point 3-fold serial dilutions in DMSO, beginning at 10 mM (final top concentration of compound in the assay was 20 μM and the DMSO was 0.2%). A 100 nL aliquot from the compound stock plate was added to its respective well in the cell plate. […] After addition of compounds, assay plates were incubated for 5 days at 37° C., 5% CO2, relative humidity >90%. Cell viability was measured by quantitation of ATP present in the cell cultures, adding 35 μl of Cell Titer Glo® reagent to the cell plates. Luminescence was read in the SpectraMax M5 microplate reader. The concentration of compound inhibiting cell viability by 50% was determined using a 4-parametric fit of the normalized dose response curves.
row,SMILES,EC50 [µM]
1,O=C(NC1CCOCC1)c1ccn(CC(O)CN2CCc3ccccc3C2)c(=O)c1 (stereo not shown) [Compound 33],> 20
